Measured values as given in patent publication US8895746B2 (University of Central Florida Research Foundation, Inc., priority 2009, dated 2014).

Experiments:
[1] = system: Stat5:Stat5 complex; test: EMSA selectivity, nuclear extracts of EGF-stimulated NIH3T3/hEGFR, MGFe probe; assay type: biochemical, mouse; conditions: up to 300 μM
Experimental: Nuclear extract preparations and electrophoretic mobility shift assay (EMSA) were carried out as previously described (28,33). […] Except where indicated, nuclear extracts were pre-incubated with compound for 30 min at room temperature prior to incubation with the radiolabeled probe for 30 min at 30° C. before subjecting to EMSA analysis.

[2] = system: Stat3; test: Intracellular Stat3 activation: EMSA of nuclear extracts from treated NIH3T3/v-Src, Panc-1 and MDA-MB-231 cells; assay type: cell-based, mouse, human; conditions: 50 μM, 24 h, Panc-1, MDA-MB-231
Experimental: Nuclear extract preparations and electrophoretic mobility shift assay (EMSA) were carried out as previously described (28,33). The ^32P-labeled oligonucleotide probes used were hSIE (high affinity sis-inducible element from the c-fos gene, m67 variant, 5′[…]; SEQ ID NO:5) that binds Stat1 and Stat3 (34) and MGFe (mammary gland factor element from the bovine β-casein gene promoter, 5′-[…]; SEQ ID NO:6) for Stat1 and Stat5 binding (35,36). Except where indicated, nuclear extracts were pre-incubated with compound for 30 min at room temperature prior to incubation with the radiolabeled probe for 30 min at 30° C. before subjecting to EMSA analysis. Bands corresponding to DNA-binding activities were scanned and quantified for each concentration of compound using ImageQuant and plotted as percent of control (vehicle) against concentration of compound, from which the IC50 values were derived, as previously reported (37).
Stat3 is constitutively activated in a variety of malignant cells, including human breast and pancreatic cancer cells (9, 10, 20).
Twenty-four hours after treatment, nuclear extracts were prepared from cells and subjected to Stat3 DNA-binding assay in vitro using the radiolabeled hSIE probe and analyzed by EMSA.

[3] = system: pTyr705Stat3; test: Western blot of pTyr705Stat3 in NIH3T3/v-Src and Panc-1 cells; assay type: cell-based, mouse, human; conditions: 24 h
Experimental: (§1) Immunoprecipitation from whole-cell lysates and SDS/PAGE and Western blotting analysis were performed as previously described (33,38).

[4] = system: colocalization of Stat3 and EGFR and Stat3 nuclear translocation; test: Immunofluorescence/confocal microscopy in EGF-stimulated NIH3T3/hEGFR; assay type: cell-based, mouse; conditions: 50 μM pre-treatment 30 min, EGF 10 min
Experimental: Cells were fixed with ice-cold methanol for 15 min, washed 3 times in PBS, permeabilized with 0.2% Triton® X-100 for 10 min, and further washed 3-4 times with PBS. Specimens were then blocked in 1% BSA for 30 min and incubated with EGFR (Santa Cruz) or Stat3 (Cell Signaling Tech) antibody at 1:50 dilution at 4° C. overnight. Subsequently, cells were rinsed 4-5 times in PBS, incubated with Alexafluor 546 rat antibody for EGFR detection and Alexa fluor 488 rabbit antibody for Stat3 detection (Invitrogen) for 1 h at room temperature in the dark. Specimens were then washed 5 times with PBS, covered with cover slides with […] mounting medium containing DAPI, and examined immediately under a Leica TCS SP5 confocal microscope (Germany) at appropriate wavelengths. Images were captured and processed using the Leica TCS SP 5 software.
Cells were then subjected to immunostaining for EGFR (red) and Stat3 (green) and analyzed by confocal microscopy for EGF-induced colocalization of Stat3 and EGFR and for Stat3 nuclear translocation, as previously performed (17). In the resting NIH3T3/hEGFR fibroblasts, EGFR (red) is widely localized at the plasma membrane, while Stat3 (green) is localized at both the plasma membrane and in the cytoplasm, with a minimal colocalization with EGFR at the plasma membrane and no visible presence in the nucleus (stained blue for DAPI) (FIG. 4A upper panel).

[5] = system: NIH3T3; test: CyQuant cell viability; assay type: cell-based, mouse
Excerpt: (§2) Aberrant Stat3 promotes malignant cell proliferation, survival and malignant transformation (10, 20, 42). Given that S3I201.1066 disrupts Stat3 activation, we asked the question whether this agent is able to selectively decrease the viability and growth of malignant cells that harbor aberrant Stat3 activity.

[6] = system: Stat3-null MEFs (Stat3−/−); test: CyQuant cell viability; assay type: cell-based, mouse
Excerpt: as §2

[7] = system: mouse thymus epithelial stromal cells (TE71); test: CyQuant cell viability; assay type: cell-based
Excerpt: as §2

[8] = system: normal human pancreatic duct epithelial cells (HPDEC); test: CyQuant cell viability; assay type: cell-based
Excerpt: as §2

[9] = system: NIH3T3, Stat3-null MEFs (Stat3−/−), HPDEC, TE71; test: Viability and growth (CyQuant, trypan blue exclusion), cells without aberrant Stat3; assay type: cell-based, mouse, human; conditions: up to 200 μM
Excerpt: as §2

[10] = system: NIH3T3/v-Ras; test: Colony survival assay; assay type: cell-based, mouse
Experimental: This was performed as previously reported (39). […] Colonies were stained with crystal violet for 4 h and counted under phase-contrast microscope.
Cultured single-cells were untreated or treated once with S3I-201.1066 and allowed to grow until large colonies were visible, which were stained and enumerated.

[11] = system: NIH3T3/v-Src, MDA-MB-231 and Panc-1 cells; test: Soft-agar colony formation assay; assay type: cell-based, mouse, human
Experimental: (§3) Colony formation assays were carried out in 6-well dishes, as described previously (16,37). Briefly, each well contained 1.5 ml of 1% agarose in Dulbeco's modified Eagle's medium as the bottom layer and 1.5 ml of 0.5% agarose in Dulbeco's modified Eagle's medium containing 4000 or 6000 NIH3T3/v-Src or NIH3T3/v-Ras fibroblasts, respectively, as the top layer. Treatment with S3I201.1066 was initiated 1 day after seeding cells by adding 80 μl of medium with or without S3I20.1.1066, and repeating every 3 days, until large colonies were evident. Colonies were quantified by staining with 20 μl of 1 mg/ml crystal violet, incubating at 37° C. overnight, and counting the next day under phase contrast microscope.

[12] = system: NIH3T3/v-Ras; test: Soft-agar colony formation assay; assay type: cell-based, mouse; conditions: concentrations that inhibit Stat3
Experimental: as §3

[13] = system: c-Myc, Bcl-xL, VEGF, and MMP-9 proteins; test: Immunoblotting of Stat3-regulated gene products in MDA-MB-231 and Panc-1 cells; assay type: cell-based, human; conditions: 48 h-treatment
Experimental: as §1
Known Stat3 downstream target genes are key in the dysregulated biological processes promoted by aberrant Stat3 (9, 20, 42).

[14] = system: human breast cancer (MDA-MB-231) xenografts; conditions: mouse, in vivo
Excerpt: Wounds were made using pipette tips in monolayer cultures of cells in six-well plates. […] The migration of cells was visualized at a 10× magnification using an Axiovert 200 Inverted Fluorescence Microscope (Zeiss, Göttingen Germany), with pictures taken using a mounted Canon Powershot A640 digital camera (Canon USA, Lake Success, N.Y.). Cells that migrated into the denuded area were quantified. Mice and in vivo tumor studies-Six-week-old female athymic nude mice were purchased from Harlan and maintained in the institutional animal facilities approved by the American Association for Accreditation of Laboratory Animal Care. Athymic nude mice were injected subcutaneously in the left flank area with 5×10^6 human breast cancer MDA-MB-231 cells in 100 μL of PBS. After 5 to 10 days, tumors of a diameter of 3 mm were established. […] Tumor volume was calculated according to the formula V=0.52×a^2×b, where a, smallest superficial diameter, b, largest superficial diameter.

Q: Which “effect on Stat5:Stat5 complex with the MGFe probe” value [1] does the source give for Cc1ccc(S(=O)(=O)N(C)CC(=O)N(Cc2ccc(C3CCCCC3)cc2)c2ccc(C(=O)O)c(O)c2)cc1 [S3I-201.1066] here?
A: no effect

Q: What about the “constitutive Stat3 activation in treated cells” value [2] of the same compound?
A: significant inhibition

Q: What about the pTyr705Stat3 levels [3] of the same compound?
A: concentration-dependent reduction

Q: What about the “EGF-stimulated colocalization between EGFR and Stat3 and Stat3 nuclear localization” value [4] of the same compound?
A: strongly blocked

Q: And the “derived IC60 values, viability” value [5]?
A: > 200 μMm

Q: What about the “derived IC60 values, viability” value [6] of the same compound?
A: > 200 μMm

Q: What about the “derived IC60 values, viability” value [7] of the same compound?
A: > 200 μMm

Q: And the “derived IC60 values, viability” value [8]?
A: > 200 μMm

Q: And the viability and growth [9]?
A: not significantly altered

Q: What about the “colony numbers, colony survival” value [10] of the same compound?
A: minimal effect

Q: And the “growth in soft-agar suspension” value [11]?
A: significantly inhibited

Q: What about the soft-agar growth [12] of the same compound?
A: minimal effect

Q: And the “expression of c-Myc, Bcl-xL, VEGF, and MMP-9 proteins” value [13]?
A: significantly suppressed

Q: And the “toxicity in tumor-bearing mice” value [14]?
A: no obvious sign of toxicity
